Experimental data taken from ChEMBL document CHEMBL5113515, “The Discovery of GSK3640254, a Next-Generation Inhibitor of HIV-1 Maturation” (J Med Chem, 2022).

Legend:
[1] = system: Human immunodeficiency virus 1; test: Antiviral activity against HIV1 wild type NL (4 to 3) infected in human MT2 cells measured after 4 to 5 days by dual-luciferase reporter assay; type: functional, organism-based; details: Human immunodeficiency virus 1, MT2
[2] = system: Human immunodeficiency virus 1; test: Antiviral activity against HIV1 wild type NL (4 to 3) infected in human MT2 cells measured after 4 to 5 days in presence of human serum by dual-luciferase reporter assay; type: functional, organism-based
[3] = system: Human immunodeficiency virus 1; test: Antiviral activity against HIV1 harbouring T332S/V362I/prR41G mutant infected in human MT2 cells measured after 4 to 5 days by dual-luciferase reporter assay; type: functional, organism-based; details: Human immunodeficiency virus 1, MT2
[4] = AUC in rat at 5 mg/kg, po; type: ADME, organism-based; parameters: dose 5 mg/kg, route po; details: in vivo, read-out: AUC
[5] = system: MT2; test: Cytotoxicity in human MT2 cells assessed as reduction in cell viability; type: functional
[6] = system: Human immunodeficiency virus 1; test: Antiviral activity against HIV1 harbouring deltaV370/T371A mutant infected in human MT2 cells measured after 4 to 5 days by dual-luciferase reporter assay; type: functional, organism-based; details: Human immunodeficiency virus 1, MT2
[7] = system: Human immunodeficiency virus 1; test: Antiviral activity against HIV1 harbouring V362I/V370A mutant infected in human MT2 cells measured after 4 to 5 days by dual-luciferase reporter assay; type: functional, organism-based; details: Human immunodeficiency virus 1, MT2
[8] = Human immunodeficiency virus 1, MT2

SMILES | EC50 [1] | EC50 [2, 8] | EC50 [3] | AUC [4] | CC50 [5] | EC50 ([2]; mt2) | EC50 [6] | EC50 [7]
C=C(C)[C@@H]1CC[C@]2(NCCN3CCS(=O)(=O)CC3)CC[C@]3(C)[C@H](CC[C@@H]4[C@@]5(C)CC=C(C6=CCC(CF)(C(=O)O)CC6)C(C)(C)[C@@H]5CC[C@]43C)[C@@H]12 (stereo not given in full) | 1.3 nM | 9.5 nM | 3.9 nM | 7.7 µM·h | 6800 nM | – | – | –
C=C(C)[C@@H]1CC[C@]2(NCCN3CCC(S(C)(=O)=O)CC3)CC[C@]3(C)[C@H](CC[C@@H]4[C@@]5(C)CC=C(C6=CCC(CC(F)F)(C(=O)O)CC6)C(C)(C)[C@@H]5CC[C@]43C)[C@@H]12 (stereo not given in full) | 1.4 nM | 9.6 nM | 4 nM | 4.29 µM·h | 7200 nM | – | – | –
C=C(C)[C@@H]1CC[C@]2(NCCN3CCC(S(C)(=O)=O)CC3)CC[C@]3(C)[C@H](CC[C@@H]4[C@@]5(C)CC=C(C6=CCC(CF)(C(=O)O)CC6)C(C)(C)[C@@H]5CC[C@]43C)[C@@H]12 (stereo not given in full) | 1.7 nM | 10.9 nM | 6.6 nM | 14.7 µM·h | 12400 nM | – | – | –
C=C(C)[C@@H]1CC[C@]2(NCCN3CCS(=O)(=O)CC3)CC[C@]3(C)[C@H](CC[C@@H]4[C@@]5(C)CC=C(C6=CCC(CF)(C(=O)O)CC6)C(C)(C)[C@@H]5CC[C@]43C)[C@@H]12 (single isomer, unassigned) [FIPRAVIRIMAT] | 2 nM | – | 9.4 nM | 6.98 µM·h | 13300 nM | 6.6 nM | 1.8 nM | –
C=C(C)[C@@H]1CC[C@]2(NCCN3CCC(S(C)(=O)=O)CC3)CC[C@]3(C)[C@H](CC[C@@H]4[C@@]5(C)CC=C(C6=CCC(CCCOC)(C(=O)O)CC6)C(C)(C)[C@@H]5CC[C@]43C)[C@@H]12 (stereo not given in full) | 2 nM | 19.3 nM | 11.1 nM | – | 12100 nM | – | – | –
C=C(C)[C@@H]1CC[C@]2(NCCN3CCS(=O)(=O)CC3)CC[C@]3(C)[C@H](CC[C@@H]4[C@@]5(C)CC=C(C6=CCC(C(=O)O)CC6)C(C)(C)[C@@H]5CC[C@]43C)[C@@H]12 (stereo not given in full) | – | – | – | 12.9 µM·h | 13900 nM | – | – | –
C=C(C)[C@@H]1CC[C@]2(NCCN3CCS(=O)(=O)CC3)CC[C@]3(C)[C@H](CC[C@@H]4[C@@]5(C)CC=C(C6=CCC(CC)(C(=O)O)CC6)C(C)(C)[C@@H]5CC[C@]43C)[C@@H]12 (stereo not given in full) | 3.6 nM | 37.9 nM | 9.7 nM | – | 27500 nM | – | – | –
C=C(C)[C@@H]1CC[C@]2(NCCN3CCS(=O)(=O)CC3)CC[C@]3(C)[C@H](CC[C@@H]4[C@@]5(C)CC=C(C6=CCC(C)(C(=O)O)CC6)C(C)(C)[C@@H]5CC[C@]43C)[C@@H]12 (stereo not given in full) | 1.5 nM | 12 nM | 4.8 nM | 5.86 µM·h | 13100 nM | – | 9.8 nM | –
C=C(C)[C@@H]1CC[C@]2(NCCN3CCS(=O)(=O)CC3)CC[C@]3(C)[C@H](CC[C@@H]4[C@@]5(C)CC=C(C6=CCC(OC)(C(=O)O)CC6)C(C)(C)[C@@H]5CC[C@]43C)[C@@H]12 (stereo not given in full) | 2.5 nM | 25 nM | 21.8 nM | 8.24 µM·h | 13100 nM | – | – | –
C=C(C)[C@@H]1CC[C@]2(NCCN3CCS(=O)(=O)CC3)CC[C@]3(C)[C@H](CC[C@@H]4[C@@]5(C)CC=C(C6=CC7(C6)CC(C(=O)O)(C(=O)O)C7)C(C)(C)[C@@H]5CC[C@]43C)[C@@H]12 | 1.3 nM | – | – | – | > 30000 nM | – | – | –
C=C(C)[C@@H]1CC[C@]2(NCCN3CCS(=O)(=O)CC3)CC[C@]3(C)[C@H](CC[C@@H]4[C@@]5(C)CC=C(C6=CCC(CC7CC7)(C(=O)O)CC6)C(C)(C)[C@@H]5CC[C@]43C)[C@@H]12 (stereo not given in full) | 4.5 nM | 48.5 nM | 54.1 nM | – | 16200 nM | – | – | –
C=C(C)[C@@H]1CC[C@]2(NCCN3CCS(=O)(=O)CC3)CC[C@]3(C)[C@H](CC[C@@H]4[C@@]5(C)CC=C(C6=CCC(O)(C(=O)O)CC6)C(C)(C)[C@@H]5CC[C@]43C)[C@@H]12 (stereo not given in full) | 2 nM | 13.1 nM | 28.5 nM | – | 6400 nM | – | 2.4 nM | 6 nM
C=C(C)[C@@H]1CC[C@]2(NCCN3CCS(=O)(=O)CC3)CC[C@]3(C)[C@H](CC[C@@H]4[C@@]5(C)CC=C(C6=CCC(CC(=O)O)CC6)C(C)(C)[C@@H]5CC[C@]43C)[C@@H]12 (stereo not given in full) | 13.1 nM | 12 nM | 124 nM | – | 6400 nM | – | 5.3 nM | 15.7 nM
C=C(C)[C@@H]1CC[C@]2(NCCN3CCS(=O)(=O)CC3)CC[C@]3(C)[C@H](CC[C@@H]4[C@@]5(C)CC=C(C6=CCC(OC(C)C)(C(=O)O)CC6)C(C)(C)[C@@H]5CC[C@]43C)[C@@H]12 (stereo not given in full) | 5 nM | 48.5 nM | 987 nM | – | 9700 nM | – | – | –
C=C(C)[C@@H]1CC[C@]2(NCCN3CCS(=O)(=O)CC3)CC[C@]3(C)[C@H](CC[C@@H]4[C@@]5(C)CC=C(C6=CC7(C6)CC(C(=O)O)C7)C(C)(C)[C@@H]5CC[C@]43C)[C@@H]12 (stereo not given in full) | – | – | 363 nM | 11.7 µM·h | 10700 nM | – | 5.8 nM | 48.5 nM
C=C(C)[C@@H]1CC[C@]2(NCCN3CCC(S(C)(=O)=O)CC3)CC[C@]3(C)[C@H](CC[C@@H]4[C@@]5(C)CC=C(C6=CC[C@](CF)(C(=O)O)CC6)C(C)(C)[C@@H]5CC[C@]43C)[C@@H]12 | 2.3 nM | 14.7 nM | 6.5 nM | 24.1 µM·h | 7100 nM | – | 8.2 nM | –
C=C(C)[C@@H]1CC[C@]2(NCCN3CCS(=O)(=O)CC3)CC[C@]3(C)[C@H](CC[C@@H]4[C@@]5(C)CC=C(C6=CCC(C(=O)O)(C(=O)O)CC6)C(C)(C)[C@@H]5CC[C@]43C)[C@@H]12 | – | – | 292 nM | – | 18600 nM | – | – | –
C=C(C)[C@@H]1CC[C@]2(NCCN3CCC(S(C)(=O)=O)CC3)CC[C@]3(C)[C@H](CC[C@@H]4[C@@]5(C)CC=C(C6=CCC(CO)(C(=O)O)CC6)C(C)(C)[C@@H]5CC[C@]43C)[C@@H]12 (stereo not given in full) | 1.1 nM | 12.6 nM | 4.6 nM | 2.37 µM·h | 9470 nM | – | 1 nM | 1.2 nM
C=C(C)[C@@H]1CC[C@]2(NCCN3CCS(=O)(=O)CC3)CC[C@]3(C)[C@H](CC[C@@H]4[C@@]5(C)CC=C(C6=CCC(COCC)(C(=O)O)CC6)C(C)(C)[C@@H]5CC[C@]43C)[C@@H]12 (stereo not given in full) | 3.2 nM | 21.8 nM | 11.5 nM | – | 5100 nM | – | – | –
C=C(C)[C@@H]1CC[C@]2(NCCN3CCC(S(C)(=O)=O)CC3)CC[C@]3(C)[C@H](CC[C@@H]4[C@@]5(C)CC=C(C6=CC[C@@H](C(=O)O)CC6)C(C)(C)[C@@H]5CC[C@]43C)[C@@H]12 | – | 4.9 nM | 18.8 nM | 9.18 µM·h | 9100 nM | – | – | –
C=C(C)[C@@H]1CC[C@]2(NCCN3CCC(S(C)(=O)=O)CC3)CC[C@]3(C)[C@H](CC[C@@H]4[C@@]5(C)CC=C(C6=CC[C@@](CF)(C(=O)O)CC6)C(C)(C)[C@@H]5CC[C@]43C)[C@@H]12 | 1.9 nM | 18.3 nM | 8 nM | 19.1 µM·h | 13400 nM | – | 5.8 nM | –
C=C(C)[C@@H]1CC[C@]2(NCCN3CCS(=O)(=O)CC3)CC[C@]3(C)[C@H](CC[C@@H]4[C@@]5(C)CC=C(C6=CCC(CCO)(C(=O)O)CC6)C(C)(C)[C@@H]5CC[C@]43C)[C@@H]12 (stereo not given in full) | 4.6 nM | 85.8 nM | 15.9 nM | – | 12700 nM | – | 5.3 nM | 4.5 nM
C=C(C)[C@@H]1CC[C@]2(NCCN3CCS(=O)(=O)CC3)CC[C@]3(C)[C@H](CC[C@@H]4[C@@]5(C)CC=C(C6=CC7C(C6)C7C(=O)O)C(C)(C)[C@@H]5CC[C@]43C)[C@@H]12 (stereo not given in full) | 2.3 nM | 30.9 nM | 299 nM | – | 6400 nM | – | 16.7 nM | 657 nM
C=C(C)[C@@H]1CC[C@]2(NCCN3CCS(=O)(=O)CC3)CC[C@]3(C)[C@H](CC[C@@H]4[C@@]5(C)CC=C(C6=CCC(C(=O)O)(c7ccccc7)CC6)C(C)(C)[C@@H]5CC[C@]43C)[C@@H]12 (stereo not given in full) | 7.7 nM | 15.1 nM | 31.2 nM | – | 13500 nM | – | – | –
C=C(C)[C@@H]1CC[C@]2(NCCN3CCC(S(C)(=O)=O)CC3)CC[C@]3(C)[C@H](CC[C@@H]4[C@@]5(C)CC=C(C6=CCC(C(=O)O)(C(F)F)CC6)C(C)(C)[C@@H]5CC[C@]43C)[C@@H]12 (stereo not given in full) | 1.9 nM | 12.7 nM | 6.6 nM | 17.9 µM·h | 11000 nM | – | 1.3 nM | 2.5 nM
C=C(C)[C@@H]1CC[C@]2(NCCN3CCS(=O)(=O)CC3)CC[C@]3(C)[C@H](CC[C@@H]4[C@@]5(C)CC=C(C6=CCC(COC)(C(=O)O)CC6)C(C)(C)[C@@H]5CC[C@]43C)[C@@H]12 (stereo not given in full) | 1.5 nM | 6.7 nM | 13.9 nM | – | 4700 nM | – | – | –
C=C(C)[C@@H]1CC[C@]2(NCCN3CCS(=O)(=O)CC3)CC[C@]3(C)[C@H](CC[C@@H]4[C@@]5(C)CC=C(C6=CCC(CO)(C(=O)O)CC6)C(C)(C)[C@@H]5CC[C@]43C)[C@@H]12 (stereo not given in full) | 4 nM | 5.9 nM | 25.6 nM | – | 14200 nM | – | 4.6 nM | 1.9 nM
C=C(C)[C@@H]1CC[C@]2(NCCN3CCS(=O)(=O)CC3)CC[C@]3(C)[C@H](CC[C@@H]4[C@@]5(C)CC=C(C6=CCC(CC(=O)O)(C(=O)O)CC6)C(C)(C)[C@@H]5CC[C@]43C)[C@@H]12 (stereo not given in full) | 3.5 nM | 135 nM | 14.1 nM | – | 6400 nM | – | – | –
